Data reported in US20240024412A1, “PHARMACEUTICAL COMPOSITION FOR TREATING CDI COMPRISING CLAY MINERAL COMPLEX, AND METHOD FOR PRODUCING SAME” (priority 2020, published 2024).

Tested on: C. difficile
Assay: mouse acute CDI model using dextran sulfate sodium (DSS), survival rate after oral administration
Assay type: in vivo
Conditions: for Mouse survival rate (%) according to type of administered drug: 10 mg/kg of vancomycin alone
Protocol: FIG. 3 is a diagram sequentially illustrating a series of experiments of being treated with dextran sodium sulfate (DSS), being infected with C. difficile, being administered with a bentonite-vancomycin complex, and observing survival rates, in order to produce a mouse acute CDI model. […]
In order to set the mixing ratio of the bentonite-antibiotics complex, vancomycin was orally administered at concentrations of 2, 20, and 200 mg/kg in a mouse acute CDI model using DSS, and the results were shown in Table 2 below and FIG. 5.
In order to confirm a synergistic effect on CDI treatment through the bentonite-antibiotics complex, according to the daily intake, the bentonite was administered at a dose concentration of 50 mg/kg and the vancomycin was administered at a dose concentration of 5 mg/kg, and the survival rates of mice were confirmed as compared to cases of administering 10 mg/kg of vancomycin alone, 50 mg/kg of bentonite alone, and saline alone as control groups thereto.

## CN[C@H](CC(C)C)C(=O)N[C@H]1C(=O)N[C@@H](CC(N)=O)C(=O)N[C@H]2C(=O)N[C@H]3C(=O)N[C@H](C(=O)N[C@H](C(=O)O)c4cc(O)cc(O)c4-c4cc3ccc4O)[C@H](O)c3ccc(c(Cl)c3)Oc3cc2cc(c3O[C@@H]2O[C@H](CO)[C@@H](O)[C@H](O)[C@H]2O[C@H]2C[C@](C)(N)[C@H](O)[C@H](C)O2)Oc2ccc(cc2Cl)[C@H]1O [Vancomycin, vancomycin]
D+14
  Mouse survival rate (%) according to type of administered drug: 1/6 (17%)
D-0
  Mouse survival rate (%) according to type of administered drug: 6/6 (100%)
Vancomycin 2 mg/kg orally, D+14
  Mouse survival rate (%) according to vancomycin dose: (20%)
Vancomycin 2 mg/kg orally, D+14, listed as vancomycin
  Mouse survival rate (%) according to vancomycin dose: 20%
Vancomycin 2 mg/kg orally, D-0
  Mouse survival rate (%) according to vancomycin dose: (100%)
Vancomycin 20 mg/kg orally, D+14
  Mouse survival rate (%) according to vancomycin dose: 5/5 (100%)
Vancomycin 20 mg/kg orally, D+14, listed as vancomycin
  Mouse survival rate (%) according to vancomycin dose: 100%
Vancomycin 20 mg/kg orally, D-0
  Mouse survival rate (%) according to vancomycin dose: 5/5 (100%)
Vancomycin 200 mg/kg orally, D+14
  Mouse survival rate (%) according to vancomycin dose: 5/5 (100%)
Vancomycin 200 mg/kg orally, D+14, listed as vancomycin
  Mouse survival rate (%) according to vancomycin dose: 100%
Vancomycin 200 mg/kg orally, D-0
  Mouse survival rate (%) according to vancomycin dose: 5/5 (100%)
